Assay results taken from PubChem BioAssay AID1963847 (Molecular Pharmacology Branch, DTP, NCI, 2024).

Test system: 415267-285-R-J2-PDC complex spheroid viability
Experiment: Anticancer human tumor 415267-285-R-J2-PDC patient-derived breast carcinoma cell line growth inhibition [POLQ]
Conditions: for IC50: curve of first compound; for viability, T/C: stronger effect = lower value
Procedure, shortened: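 PDC + HUVEC + MSC complex spheroids; POLQ inhibitors ± partner drugs; top conc. at/near clinical Cmax, else 10 microM (SN-38 1 microM), half-log dilutions; 37 degrees C, 5% CO2.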

[1] = second compound 0.0316 µM, first compound 0.0316 µM
[2] = second compound 0.0316 µM, first compound 0.1 µM
[3] = second compound 0.0316 µM, first compound 0.316 µM
[4] = second compound 0.0316 µM, first compound 1 µM
[5] = second compound 0.0316 µM, first compound 3.16 µM
[6] = second compound 0.0316 µM, first compound 10 µM
[7] = second compound 0.1 µM, first compound 0.0316 µM
[8] = second compound 0.1 µM, first compound 0.1 µM
[9] = second compound 0.1 µM, first compound 0.316 µM
[10] = second compound 0.1 µM, first compound 1 µM
[11] = second compound 0.1 µM, first compound 3.16 µM
[12] = second compound 0.1 µM, first compound 10 µM
[13] = second compound 0.316 µM, first compound 0.0316 µM
[14] = second compound 0.316 µM, first compound 0.1 µM
[15] = second compound 0.316 µM, first compound 0.316 µM
[16] = second compound 0.316 µM, first compound 1 µM
[17] = second compound 0.316 µM, first compound 3.16 µM
[18] = second compound 0.316 µM, first compound 10 µM
[19] = second compound 1 µM, first compound 0.0316 µM
[20] = second compound 1 µM, first compound 0.1 µM
[21] = second compound 1 µM, first compound 0.316 µM
[22] = second compound 1 µM, first compound 1 µM
[23] = second compound 1 µM, first compound 3.16 µM
[24] = second compound 1 µM, first compound 10 µM
[25] = second compound 3.16 µM, first compound 0.0316 µM
[26] = second compound 3.16 µM, first compound 0.1 µM
[27] = second compound 3.16 µM, first compound 0.316 µM
[28] = second compound 3.16 µM, first compound 1 µM
[29] = second compound 3.16 µM, first compound 3.16 µM
[30] = second compound 3.16 µM, first compound 10 µM
[31] = second compound 10 µM, first compound 0.0316 µM
[32] = second compound 10 µM, first compound 0.1 µM
[33] = second compound 10 µM, first compound 0.316 µM
[34] = second compound 10 µM, first compound 1 µM
[35] = second compound 10 µM, first compound 3.16 µM
[36] = second compound 10 µM, first compound 10 µM
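Also: spheroids exposed to compounds for one week before readout.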
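For viability, T/C in this document: luminescence used as stand-in measure of viable cells; 100% = DMSO vehicle control viability.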

Compound: O=C(c1cc(Cc2n[nH]c(=O)c3ccccc23)ccc1F)N1CCN(C(=O)C2CC2)CC1 + Nc1ccc(C#CCN(C(=O)Cc2ncc(C(F)(F)F)cc2C(F)(F)F)c2ccc(F)cc2)nn1
- IC50 (second compound 0.0316 µM): > 10000 nM
- IC50 (second compound 0.1 µM): > 10000 nM
- IC50 (second compound 0.316 µM): > 10000 nM
- IC50 (second compound 1 µM): > 10000 nM
- IC50 (second compound 3.16 µM): > 10000 nM
- IC50 (second compound 10 µM): > 10000 nM
- viability, T/C [1]: 100%
- viability, T/C [2]: 106%
- viability, T/C [3]: 106%
- viability, T/C [4]: 97.5%
- viability, T/C [5]: 96%
- viability, T/C [6]: 99%
- viability, T/C [7]: 98.4%
- viability, T/C [8]: 103%
- viability, T/C [9]: 109%
- viability, T/C [10]: 97.2%
- viability, T/C [11]: 108%
- viability, T/C [12]: 90.8%
- viability, T/C [13]: 106%
- viability, T/C [14]: 115%
- viability, T/C [15]: 101%
- viability, T/C [16]: 114%
- viability, T/C [17]: 101%
- viability, T/C [18]: 105%
- viability, T/C [19]: 108%
- viability, T/C [20]: 109%
- viability, T/C [21]: 108%
- viability, T/C [22]: 98.5%
- viability, T/C [23]: 110%
- viability, T/C [24]: 108%
- viability, T/C [25]: 101%
- viability, T/C [26]: 101%
- viability, T/C [27]: 100%
- viability, T/C [28]: 101%
- viability, T/C [29]: 105%
- viability, T/C [30]: 115%
- viability, T/C [31]: 98.9%
- viability, T/C [32]: 96.9%
- viability, T/C [33]: 113%
- viability, T/C [34]: 107%
- viability, T/C [35]: 97.8%
- viability, T/C [36]: 102%

Compound: CC1COCCN1c1cc(C2(O)CC3CCC(C2)O3)c2cnn(-c3ccn[nH]3)c2n1 (stereo unspecified) + COC1C(OC(N)=O)C(O)C(Oc2ccc3c(O)c(NC(=O)c4ccc(O)c(CC=C(C)C)c4)c(=O)oc3c2C)OC1(C)C
- IC50 (second compound 0.0316 µM): < 31.6 nM
- IC50 (second compound 0.1 µM): < 31.6 nM
- IC50 (second compound 0.316 µM): < 31.6 nM
- IC50 (second compound 1 µM): < 31.6 nM
- IC50 (second compound 3.16 µM): < 31.6 nM
- IC50 (second compound 10 µM): < 31.6 nM
- viability, T/C [1]: 17.2%
- viability, T/C [2]: 6.83%
- viability, T/C [3]: 8.23%
- viability, T/C [4]: 5.44%
- viability, T/C [5]: 4.27%
- viability, T/C [6]: 4.51%
- viability, T/C [7]: 17.1%
- viability, T/C [8]: 6.51%
- viability, T/C [9]: 4.34%
- viability, T/C [10]: 4.52%
- viability, T/C [11]: 3.9%
- viability, T/C [12]: 4.57%
- viability, T/C [13]: 22.7%
- viability, T/C [14]: 9.96%
- viability, T/C [15]: 4.64%
- viability, T/C [16]: 3.57%
- viability, T/C [17]: 5.27%
- viability, T/C [18]: 4%
- viability, T/C [19]: 27.2%
- viability, T/C [20]: 6.76%
- viability, T/C [21]: 4.22%
- viability, T/C [22]: 4.87%
- viability, T/C [23]: 4.41%
- viability, T/C [24]: 3.65%
- viability, T/C [25]: 21%
- viability, T/C [26]: 8.52%
- viability, T/C [27]: 4.99%
- viability, T/C [28]: 4.02%
- viability, T/C [29]: 4.45%
- viability, T/C [30]: 4.43%
- viability, T/C [31]: 29.5%
- viability, T/C [32]: 7.77%
- viability, T/C [33]: 5.61%
- viability, T/C [34]: 5.07%
- viability, T/C [35]: 4.2%
- viability, T/C [36]: 4.18%

Compound: COc1cc(C2c3cc4c(cc3C(OC3OC5COC(C)OC5C(O)C3O)C3COC(=O)C23)OCO4)cc(OC)c1O (stereo unspecified) + Cc1cccc(N(C)C(=O)C2C(O)CCN2c2nc(C)cc(C(F)(F)F)c2C#N)c1
- IC50 (second compound 0.0316 µM): 136 nM
- IC50 (second compound 0.1 µM): 126 nM
- IC50 (second compound 0.316 µM): 107 nM
- IC50 (second compound 1 µM): 125 nM
- IC50 (second compound 3.16 µM): 103 nM
- IC50 (second compound 10 µM): 89.9 nM
- viability, T/C [1]: 96%
- viability, T/C [2]: 64.5%
- viability, T/C [3]: 10.3%
- viability, T/C [4]: 6.03%
- viability, T/C [5]: 5.96%
- viability, T/C [6]: 6.13%
- viability, T/C [7]: 83.3%
- viability, T/C [8]: 58.7%
- viability, T/C [9]: 15%
- viability, T/C [10]: 5.93%
- viability, T/C [11]: 6.54%
- viability, T/C [12]: 7.34%
- viability, T/C [13]: 96.4%
- viability, T/C [14]: 52.3%
- viability, T/C [15]: 14.2%
- viability, T/C [16]: 7.66%
- viability, T/C [17]: 5.87%
- viability, T/C [18]: 5.74%
- viability, T/C [19]: 91.3%
- viability, T/C [20]: 58.8%
- viability, T/C [21]: 13.1%
- viability, T/C [22]: 6.58%
- viability, T/C [23]: 4.68%
- viability, T/C [24]: 6.56%
- viability, T/C [25]: 93.7%
- viability, T/C [26]: 50.9%
- viability, T/C [27]: 10.1%
- viability, T/C [28]: 7.37%
- viability, T/C [29]: 5.2%
- viability, T/C [30]: 6.34%
- viability, T/C [31]: 79.7%
- viability, T/C [32]: 47%
- viability, T/C [33]: 11%
- viability, T/C [34]: 7.78%
- viability, T/C [35]: 5.72%
- viability, T/C [36]: 5.96%
